In patent publication US6828327B2, “Macroheterocylic compounds useful as kinase inhibitors” (Ortho-McNeil Pharmaceutical, Inc., priority 2000, dated 2004):
pIC50: −log10 of the molar value.

What was measured:
Format in all cases: biochemical
EGF-R = biological target: T1, EGF-R (Homo sapiens, UniProt P00533); assay: Biotinylated Peptide Substrate Assay, EGF-R; conditions: read-out: EGF-R Kinase Assay (IC50 uM)
T1 construct: is purified from human A431 cell membranes; purchased Sigma, St. Louis, Mo; E3641; host or cells: human A431 cell membranes (endogenous receptor)
Description: (§1) Assays to test inhibition of a compound for other kinases were preformed using methods that measure the amount of phosphorylation of a biotinylated peptide substrate. Biotinylated peptide substrates were selected from the literature as appropriate for the enzyme being evaluated.
(§2) A kinase reaction mix was prepared in 50 mM Tris-HCl pH=8, 10 mM MgCl2, 0.1 mM Na3VO4, 1 mM DTT, 10 μM ATP, 0.25-1 μM biotinylated peptide substrate, 0.2-0.8 μCuries per well ^33P-γ-ATP (2000-3000 Ci/mmol). Assay conditions vary slightly for each protein kinase, for example, insulin receptor kinase requires 10 mM MnCl2 for activity and Calmodulin-dependent protein kinase requires calmodulin and 10 mM CaCl2. The reaction mixture was dispensed into the wells of a streptavidin coated Flashplate and 1 μL drug stock in 100% DMSO was added to a 100 μL reaction volume resulting in a final concentration of 1% DMSO in the reaction. Enzyme was diluted in 50 mM Tris-HCl pH=8.0, 0.1% BSA and added to each well. The reaction was incubated for one hour at 30° C. in the presence of compound. After one hour the reaction mix was aspirated from the plate and the plate was washed with PBS containing 100 mM EDTA. The plate was read on a scintillation counter to determine ^33P-γ-ATP incorporated into the immobilized peptide. Test compounds were assayed in duplicate at 8 concentrations (100 uM, 10 uM, 1 uM, 100 nM, 10 nM, 1 nM, 100 pM, 10 pM). A maximum and minimum signal for the assay was determined on each plate.
(§3) The IC50 was calculated from the dose response curve of the percent inhibition of the maximum signal in the assay according to the formula:
(§4) % Inhibition=((MS−BS)/(TCS−BS))×100%
(§5) where MS=Maximum Signal, BS=Background Signal, TCS=Test Compound Signal. The percent inhibition was graphed against the log concentration of the test compound. Known inhibitor compounds as appropriate references for the kinase being assayed were also included on each plate.
(§6) VEGF-R (vascular endothelial growth factor receptor-2) is a fusion protein containing a polyhistidine tag at the N-terminus followed by amino acids 786-1343 of the rat VEGF-R2 kinase domain (GenBank Accession #U93306). Protein Kinase A is the catalytic subunit of cAMP dependent protein kinase-A purified from bovine heart (Upstate Biotech, Lake Placid, N.Y., Cat#14-114). CDK1 (cyclin dependent kinase 1) is isolated from insect cells expressing both the human CDK1 catalytic subunit and its positive regulatory subunit cyclin B (New England Biolabs, Beverly, Mass., Cat. #6020). Casein Kinase-1 is a protein truncation at amino acid 318 of the C-terminal portion of the rat CK1 delta isoform produced in E.coli (New England Biolabs, Beverly, Mass., Cat. #6030). […]

PKC-βI = biological target: T2, PKC-βI (Homo sapiens, UniProt P05771); assay: Protein Kinase C Scintillation Proximity Assay (SPA), PKC-βI; conditions: inhibition value, recombinant human isozyme, 1 μM ATP
T2 construct: purchased PanVera, Madison Wis; host or cells: baculovirus expression vector
Description: The binding activity of a compound for Protein Kinase C (PKC) was assessed using a homogeneous Scintillation Proximity Assay according to the procedure below.
The different human PKC isozymes (were obtained from PanVera, Madison Wis. and had been prepared as recombinant enzymes produced from a baculovirus expression vector) were added to a reaction mixture containing a test compound, 20 mM HEPES (pH 7.4), 100 μM CaCl2, 10 mM MgCl2, 100 μg/mL phosphatidylserine, 20 μg/mL diacylglycerol, 1 μM ATP, 0.8 μCi (^33P)ATP, and 5 μg/mL biotinylated substrate peptide (Jing Zhao et al., J. Bio. Chem., 1998, 273, 23072). The reaction was incubated for 15 min at 30° C. Reactions were terminated by the addition of streptavidin-coated SPA beads (Amersham) in a solution containing 1 mM EGTA, 10 mM EDTA and 100 μM ATP. Beads were allowed to settle overnight and the plates read in a Wallac MICROBETA scintillation counter (PerkinElmer Life sciences, Wellesley, Mass.).
Values for inhibition of various PKC isozymes and GSK 3-β by certain compounds of the invention tested in the PKC SPA and GSK 3-β assays are shown in Table 1.

Calmodulin Kinase 2 = biological target: T3, Calmodulin Kinase 2 (Rattus norvegicus, UniProt P11275); assay: Biotinylated Peptide Substrate Assay, Calmodulin Kinase 2
T3 construct: purchased New England Biolabs, Beverly, Mass; 6060; host or cells: insect cells
Description: as §1, §2, §3, §4, §5, §6

CDK1 = biological target: T4, CDK1 (Homo sapiens, UniProt P06493); assay: Biotinylated Peptide Substrate Assay, CDK1; conditions: read-out: CDK1 Kinase Assay (IC50 uM)
T4 construct: purchased New England Biolabs, Beverly, Mass; 6020; host or cells: insect cells
Description: as §1, §2, §3, §4, §5, §6

VEGF-R = biological target: T5, VEGF-R (Rattus norvegicus, UniProt O08775); assay: Biotinylated Peptide Substrate Assay, VEGF-R; conditions: read-out: VEGF-R Kinase Assay (IC50 uM)
T5 construct: polyhistidine (N)
Description: as §1, §2, §3, §4, §5, §6

Casein Kinase 1 = biological target: T6, Casein Kinase 1 (Rattus norvegicus, UniProt Q06486); assay: Biotinylated Peptide Substrate Assay, Casein Kinase 1
T6 construct: a protein truncation at amino acid 318 of the C-terminal portion of the rat CK1 delta isoform; purchased New England Biolabs, Beverly, Mass; 6030; host or cells: E. coli
T6 sequence (Q06486 1-317 limits assumed): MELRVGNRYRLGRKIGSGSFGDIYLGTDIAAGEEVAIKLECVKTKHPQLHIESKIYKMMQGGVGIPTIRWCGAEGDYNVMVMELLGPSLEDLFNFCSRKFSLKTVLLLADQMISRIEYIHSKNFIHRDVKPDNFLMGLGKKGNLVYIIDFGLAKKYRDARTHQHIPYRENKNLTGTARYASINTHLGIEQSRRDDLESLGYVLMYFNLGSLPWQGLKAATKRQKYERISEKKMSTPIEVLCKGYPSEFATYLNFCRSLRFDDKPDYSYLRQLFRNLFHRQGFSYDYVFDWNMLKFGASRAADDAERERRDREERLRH
Description: as §1, §2, §3, §4, §5, §6

Map kinase ERK-2 = biological target: T7, Map kinase ERK-2 (Rattus norvegicus, UniProt P63086); assay: Biotinylated Peptide Substrate Assay, Map kinase ERK-2
T7 construct: polyhistidine (N); purchased BIOMOL, Plymouth Meeting, Pa; SE-137; host or cells: E. coli
Description: as §1, §2, §3, §4, §5, §6

T5 sequence (O08775 786-1343): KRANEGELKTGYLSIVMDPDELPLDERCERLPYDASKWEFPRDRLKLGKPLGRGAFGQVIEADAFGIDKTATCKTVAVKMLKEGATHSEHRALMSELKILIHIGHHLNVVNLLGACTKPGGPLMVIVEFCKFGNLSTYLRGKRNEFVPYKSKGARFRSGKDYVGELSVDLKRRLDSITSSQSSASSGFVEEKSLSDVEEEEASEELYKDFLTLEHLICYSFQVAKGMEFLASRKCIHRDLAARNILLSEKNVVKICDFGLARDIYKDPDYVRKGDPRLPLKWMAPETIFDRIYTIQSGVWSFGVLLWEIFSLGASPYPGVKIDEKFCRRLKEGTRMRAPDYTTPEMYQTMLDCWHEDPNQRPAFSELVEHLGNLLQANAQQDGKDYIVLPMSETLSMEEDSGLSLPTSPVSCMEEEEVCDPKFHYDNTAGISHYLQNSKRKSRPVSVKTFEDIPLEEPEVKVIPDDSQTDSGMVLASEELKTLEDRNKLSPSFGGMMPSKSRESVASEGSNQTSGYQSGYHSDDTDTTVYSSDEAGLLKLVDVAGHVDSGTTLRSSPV
T4 sequence (P06493 whole entry): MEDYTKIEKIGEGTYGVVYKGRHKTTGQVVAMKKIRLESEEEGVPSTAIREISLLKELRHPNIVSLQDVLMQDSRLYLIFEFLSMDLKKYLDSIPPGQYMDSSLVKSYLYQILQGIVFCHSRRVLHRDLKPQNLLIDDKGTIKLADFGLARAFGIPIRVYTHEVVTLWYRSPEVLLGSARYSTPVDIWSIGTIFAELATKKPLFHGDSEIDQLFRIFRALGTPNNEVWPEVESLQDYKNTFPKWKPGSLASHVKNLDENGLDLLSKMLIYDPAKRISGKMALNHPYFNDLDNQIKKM
T4 sequence (P14635 whole entry partner): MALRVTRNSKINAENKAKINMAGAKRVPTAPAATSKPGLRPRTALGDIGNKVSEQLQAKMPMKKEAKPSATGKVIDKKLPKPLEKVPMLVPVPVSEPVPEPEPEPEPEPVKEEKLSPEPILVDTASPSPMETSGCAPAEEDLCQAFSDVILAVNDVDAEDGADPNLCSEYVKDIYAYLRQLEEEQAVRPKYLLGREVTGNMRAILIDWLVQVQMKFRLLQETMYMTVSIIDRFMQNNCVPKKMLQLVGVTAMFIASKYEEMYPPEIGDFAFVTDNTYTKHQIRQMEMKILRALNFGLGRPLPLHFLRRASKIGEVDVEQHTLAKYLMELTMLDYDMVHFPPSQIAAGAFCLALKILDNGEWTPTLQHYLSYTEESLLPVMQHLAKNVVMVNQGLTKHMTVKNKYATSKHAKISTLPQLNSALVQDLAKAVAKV
T1 sequence (P00533 25-1210): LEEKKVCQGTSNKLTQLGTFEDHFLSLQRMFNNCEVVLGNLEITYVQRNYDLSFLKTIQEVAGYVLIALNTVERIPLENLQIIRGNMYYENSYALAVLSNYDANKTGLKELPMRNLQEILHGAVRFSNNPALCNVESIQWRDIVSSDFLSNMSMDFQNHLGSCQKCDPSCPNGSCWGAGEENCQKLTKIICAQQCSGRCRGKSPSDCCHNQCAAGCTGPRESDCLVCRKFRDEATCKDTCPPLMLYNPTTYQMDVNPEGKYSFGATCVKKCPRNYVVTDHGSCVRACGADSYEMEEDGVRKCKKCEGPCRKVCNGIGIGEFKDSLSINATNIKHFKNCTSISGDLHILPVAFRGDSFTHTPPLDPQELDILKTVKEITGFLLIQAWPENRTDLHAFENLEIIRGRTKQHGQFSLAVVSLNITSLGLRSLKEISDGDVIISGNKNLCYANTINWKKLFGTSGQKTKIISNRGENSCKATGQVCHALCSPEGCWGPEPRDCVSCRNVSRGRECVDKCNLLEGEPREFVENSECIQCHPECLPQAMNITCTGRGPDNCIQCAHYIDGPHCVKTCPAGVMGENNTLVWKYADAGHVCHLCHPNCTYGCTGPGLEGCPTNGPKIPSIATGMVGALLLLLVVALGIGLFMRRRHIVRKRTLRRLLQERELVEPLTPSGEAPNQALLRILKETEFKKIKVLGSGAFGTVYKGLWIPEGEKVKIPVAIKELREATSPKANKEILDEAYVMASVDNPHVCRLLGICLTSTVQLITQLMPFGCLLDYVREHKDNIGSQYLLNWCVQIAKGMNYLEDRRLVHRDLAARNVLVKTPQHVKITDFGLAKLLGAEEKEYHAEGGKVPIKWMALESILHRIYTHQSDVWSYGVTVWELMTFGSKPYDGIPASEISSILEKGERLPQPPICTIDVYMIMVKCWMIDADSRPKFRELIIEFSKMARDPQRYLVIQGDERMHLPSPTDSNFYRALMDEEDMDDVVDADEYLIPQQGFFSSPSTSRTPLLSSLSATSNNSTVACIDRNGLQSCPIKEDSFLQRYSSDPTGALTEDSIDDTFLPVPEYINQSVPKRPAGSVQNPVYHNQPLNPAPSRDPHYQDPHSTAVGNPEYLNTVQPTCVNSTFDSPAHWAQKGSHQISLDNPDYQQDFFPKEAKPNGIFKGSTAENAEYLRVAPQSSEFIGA
T7 sequence (P63086 whole entry): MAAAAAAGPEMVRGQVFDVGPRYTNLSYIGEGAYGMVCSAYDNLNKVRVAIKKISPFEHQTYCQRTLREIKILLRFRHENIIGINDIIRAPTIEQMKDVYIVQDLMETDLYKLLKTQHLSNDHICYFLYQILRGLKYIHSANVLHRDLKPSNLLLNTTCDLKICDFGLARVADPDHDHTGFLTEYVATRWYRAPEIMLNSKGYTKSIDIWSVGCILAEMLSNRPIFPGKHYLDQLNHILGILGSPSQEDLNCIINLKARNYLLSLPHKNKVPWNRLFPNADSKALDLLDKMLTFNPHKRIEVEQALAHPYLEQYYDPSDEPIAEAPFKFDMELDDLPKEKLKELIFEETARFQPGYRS
T2 sequence (P05771 whole entry): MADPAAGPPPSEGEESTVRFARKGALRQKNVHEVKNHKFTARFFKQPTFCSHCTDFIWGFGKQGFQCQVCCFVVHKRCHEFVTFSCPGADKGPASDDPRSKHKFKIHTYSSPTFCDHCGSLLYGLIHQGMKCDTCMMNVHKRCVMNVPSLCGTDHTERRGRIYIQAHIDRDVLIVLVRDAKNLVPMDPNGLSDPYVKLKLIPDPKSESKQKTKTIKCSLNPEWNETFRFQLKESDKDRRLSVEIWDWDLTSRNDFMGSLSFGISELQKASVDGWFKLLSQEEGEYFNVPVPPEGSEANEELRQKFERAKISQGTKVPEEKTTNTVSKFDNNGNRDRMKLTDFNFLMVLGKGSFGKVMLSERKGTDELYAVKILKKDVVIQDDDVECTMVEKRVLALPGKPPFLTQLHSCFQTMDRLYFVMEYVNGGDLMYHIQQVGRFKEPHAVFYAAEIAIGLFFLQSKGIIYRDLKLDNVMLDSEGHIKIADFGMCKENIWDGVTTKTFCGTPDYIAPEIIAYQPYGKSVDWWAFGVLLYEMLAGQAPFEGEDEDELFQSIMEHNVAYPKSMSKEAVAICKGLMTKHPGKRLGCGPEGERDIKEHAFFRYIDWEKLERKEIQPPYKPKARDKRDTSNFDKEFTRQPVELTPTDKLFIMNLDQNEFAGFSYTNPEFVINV

Compound	IC50 (EGF-R) [µM]	pIC50 (PKC-βI)	IC50 (Calmodulin Kinase 2) [µM]	IC50 (CDK1) [µM]	IC50 (VEGF-R) [µM]	IC50 (Casein Kinase 1) [µM]	IC50 (Map kinase ERK-2) [µM]
O=C1NC(=O)C2=C1c1cn(c3ncccc13)CCOCCOCCOCCn1cc2c2cccnc21 [Cpd 1]	> 10	4.73	> 10	> 10	> 10	> 10	> 10
O=C1NC(=O)C2=C1c1cn(c3ccccc13)CCOCCOCCOCCn1cc2c2cccnc21 [Cpd 11]	> 10	5.98	> 10	0.457	0.889	> 10	> 10
O=C1NC(=O)C2=C1c1cn(c3ncccc13)CCOCCOCCOCCOCCn1cc2c2cccnc21 [Cpd 2]	> 10	< 4.00	> 10	> 10	> 10	> 10	> 10
O=C1NC(=O)C2=C1c1cn(c3ccccc13)CCOCCOCCn1cc2c2cccnc21 [Cpd 10]	> 10	5.29	> 10	0.422	1.2	> 10	> 10
